From patent US5229381A, “Substituted azetidinones as anti-inflammatory and antidegenerative agents” (Merck & Co., Inc., priority 1991, dated 1993)
Where two headings read alike, the source gives them in different places.

Target: T1, human polymorphonuclear leukocyte elastase (Homo sapiens, UniProt P08246)
T1 construct: Crude extract of human polymorphonuclear leukocytes (PMN) containing elastase activity; endogenous in cells; host or cells: human polymorphonuclear leukocytes (crude extract)
T1 sequence (P08246 30-247 limits assumed): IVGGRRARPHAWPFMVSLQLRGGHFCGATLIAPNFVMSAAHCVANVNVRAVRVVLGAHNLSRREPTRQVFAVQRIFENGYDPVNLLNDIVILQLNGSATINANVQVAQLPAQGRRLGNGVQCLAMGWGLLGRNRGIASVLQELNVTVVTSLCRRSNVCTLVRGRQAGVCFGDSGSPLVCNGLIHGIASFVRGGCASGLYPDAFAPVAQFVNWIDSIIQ
Experiment: Inhibition of human polymorphonuclear leukocyte (granulocyte) elastase via hydrolysis of Boc-AAPAN or Boc-AAPVN
Assay type: biochemical
Settings: (per mole per second); for kinact/KI: read-out: kobs/I, second order rate constant of inactivation of the enzyme
Protocol: Enzyme Assays for the Inhibition of Human Polymorphonuclear Leukocyte Elastase Via Hydrolysis of N-t-Boc-alanyl-alanyl-prolylalanine-p-nitroanilide (Boc-AAPAN) or N-t-Boc-alanyl-prolylvaline-p-nitroanilide (Boc-AAPVN) Reagent:
0.05M TES (N-tris[hydroxymethyl]methyl-2-amino-ethanesulfonic acid) Buffer, pH 7.5.
0.2 mM Boc-AAPAN or Boc-AAPVN.
To prepare substrate, the solid was first dissolved in 10.0 ml DMSO. Buffer at pH 7.5 was then added to a final volume of 100 ml.
Crude extract of human polymorphonuclear leukocytes (PMN) containing elastase activity.
Inhibitors (azetidinones) to be tested dissolved in DMSO just before use.
To 1.0 ml of 0.2 mM Boc-AAPAN in a cuvette, 0.01-0.1 ml of DMSO with or without inhibitor was added. After mixing, a measurement was taken at 410 mμ to detect any spontaneous hydrolysis due to presence of test compound. 0.05 Milliliters of PMN extract was then added and the ΔOD/min at 410 mμ was measured and recorded. Beckman model 35 spectrophotometer was used.
Results were also expressed as Ki, the micromolar concentration of the inhibitor (μM) giving 50% of the control enzyme activity; or as ^k obs/I which is the second order rate constant in per mole per second for inactivation of the enzyme.
The elastase activity in the crude PMN extract may vary from one preparation to another. A control of each new batch is run, and the volume added in the assay procedure is adjusted according to activity.

Row | Structure (SMILES) | kinact/KI (pH 7.5, Table II) | also measured
1 | CCC1(CC)C(=O)N(C(=O)N[C@H](COC)c2ccccc2)[C@H]1Oc1ccc(C(=O)O)cc1 [Table V: 4-COOH; CH2 OMe; H] | – | kinact/KI (pH 7.5, Table V): 6090 M⁻¹ s⁻¹
2 | CCC1(Cc2ccccc2)C(=O)N(C(=O)NCc2ccccc2)C1Oc1ccc(C(=O)O)cc1 (stereo not shown) | 87 M⁻¹ s⁻¹ | –
3 | CCC1(C)C(=O)N(C(=O)NCc2cc(C)c(C(=O)O)c(C)c2)C1Oc1ccc(C(=O)O)cc1 (stereo not shown) | 5600 M⁻¹ s⁻¹ | –
4 | CCCC1(CCC)C(=O)N(C(=O)NC(C)c2ccccc2)C1Oc1ccc(C(=O)O)cc1 (single isomer, unassigned) [Table IV: C3 H7; C3 H7; O-(4-COOHPh); drawing 47 (lower Rf isomer)] | – | kobs/I, second order rate constant of inactivation of the enzyme (Table IV): 1446 M⁻¹ s⁻¹
5 | CCC[C@@H](NC(=O)N1C(=O)C(CC)(CC)[C@@H]1Oc1ccc(CC(=O)O)c(F)c1)c1ccc(C)cc1 [Table VI: 3-F,4-CH2 COOH; nPr; 4-Me, (4S)-3,3-Diethyl-1-[(R)-α-n-propyl-(4-methyl)benzylaminocarbonyl]-4-[(4-carboxymethyl-3-fluoro)phenoxy]azetidin-2-one] | – | kinact/KI (pH 7.5, Table VI): 637000 M⁻¹ s⁻¹

Further lines, with some results ahead:

Row | kinact/KI (pH 7.5, Table II) | Structure (SMILES) | also measured
6 | 1970 M⁻¹ s⁻¹ | C=CCC1(CC)C(=O)N(C(=O)NCc2ccccc2)C1Oc1ccc(C(=O)O)cc1 (stereo not shown) | –
7 | 8300 M⁻¹ s⁻¹ | CCCCCCCCCNC(=O)N1C(=O)C(CC)(CC)C1Oc1ccc(C(=O)O)cc1 (stereo not shown) | –
